# Measured values: patent publication US20260285858A1, “GLP-1 RECEPTOR TARGETING COMPOUNDS AND USES THEREOF” (FORTVITA BIOLOGICS INC., priority 2023, published 2026)
# How the values were obtained:
# human GLP-1R = molecular target: T1, human GLP-1R (Homo sapiens, UniProt P43220); test: cAMP accumulation assay (Hithunter cAMP Assay) in CHO-K1 cells stably expressing human GLP-1R; type: cell-based; details: CHO-K1 cells expressing human GLP-1R; in the presence of BSA (1%); 30-minute incubation; relative EC50
# T1 construct: expressed in transfected cells; host or cells: CHO-K1
# Method: CHO-K1 cell line stably expressing human GLP-1R was used to detect the cAMP levels using Hithunter cAMP Assay for small molecules platform according manufacturer's instructions (DiscoverX, Cat #90-0075SM2). […] After a 30-minute incubation at 37° C., the cAMP antibody reagent, working solution (mixing 19-parts of lysis buffer, 5-parts of substrate reagent 1, 1-part of substrate reagent 2, and 25-parts of solution D (enzyme donor-labeled cAMP)), and solution A (enzyme […]) were added and incubated at room temperature in the dark. The resulting competitive assays were measured using Spectramax i3x Multi-Mode Detection system (Molecular Devices, USA). A relative EC50 was derived by nonlinear regression analysis by fitting to a 4-parameter logistic model in GraphPad Prism 9 software.
# [1] = Pharmacokinetic testing in crab-eating macaques (cynomolgus monkey), IV and PO; type: in vivo; details: for pharmacokinetics compared to Orforglipron: comparison in words; for AUC(0-t) at 24 h / C0 / clearance / half-life / Cmax / bioavailability: cynomolgus monkey, plasma; for bioavailability: 2 mg/kg vs IV 0.5 mg/kg
# Method: Crab-eating macaques were administered the compound of the present invention via intravenous injection and oral gavage, respectively. Plasma samples were collected at various time points. The drug concentration of the test compound in the plasma tissue of the crab-eating macaques was detected using an LC-MS/MS analytical method, and a pharmacokinetic analysis was conducted.
# Solvent for intravenous injection dosing formulation: […] (DMSO)+5% polyethylene glycol (PEG)-15 hydroxystearate+90% o physiological saline.
# Preparation steps for the intravenous injection dosing solution: Accurately weigh the test compound and add it to the aforementioned solvent for intravenous injection dosing to prepare a solution with a final concentration of 0.25 mg/mL.
# Solvent for oral dosing formulation: 5% dimethyl sulfoxide (DMSO)+5% polyethylene glycol (PEG)-15 hydroxystearate+90% physiological saline.
# Preparation steps for the oral dosing solution: Accurately weigh the test compound and add it to the aforementioned solvent for oral dosing to prepare a solution or suspension with a final concentration of 0.4 mg/mL.
# Intravenous injection(IV): Administered via […].
# Oral (PO): Select an appropriately sized gavage needle and syringe, insert the gavage needle into the esophagus from the base of the tongue, until it is close to the cardia of the stomach, then inject the drug formulation and remove the gavage needle. When using disposable plastic gavage needles, use one per group.
# Blood is collected via a cephalic vein or other suitable vein, with approximately 1 mL per sample, anticoagulated with K2-EDTA, and placed on ice after collection. After collection, blood samples are kept on ice and centrifuged to separate the plasma within 1 hour (centrifugation conditions: 2200 g, 10 minutes, 2-8° C.). Plasma samples are stored at −80° C. before analysis and the remaining plasma samples after analysis are continued to be stored at −80° C. • 4. Sample Detection Plasma concentration detection: The developed LC-MS/MS method is used to detect the compound in the plasma in this experiment. • 5. Data Analysis A non-compartmental model is used to analyze the blood concentration-time data using Phoenix® WinNonlin® (Version 7.0, Pharsight, Mountain View, CA).
# T1 sequence (P43220 24-463): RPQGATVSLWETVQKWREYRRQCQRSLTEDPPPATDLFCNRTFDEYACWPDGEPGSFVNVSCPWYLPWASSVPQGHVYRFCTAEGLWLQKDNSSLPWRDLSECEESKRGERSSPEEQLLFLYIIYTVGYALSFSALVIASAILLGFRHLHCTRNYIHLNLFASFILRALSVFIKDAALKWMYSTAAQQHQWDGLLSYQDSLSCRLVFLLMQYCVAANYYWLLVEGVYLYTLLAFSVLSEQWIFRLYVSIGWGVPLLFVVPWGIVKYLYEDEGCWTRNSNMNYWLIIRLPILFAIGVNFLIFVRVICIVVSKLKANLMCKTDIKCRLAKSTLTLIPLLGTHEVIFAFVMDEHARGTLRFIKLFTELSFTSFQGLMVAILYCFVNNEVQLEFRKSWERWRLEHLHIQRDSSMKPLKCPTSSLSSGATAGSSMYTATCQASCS
EC50 (human GLP-1R) [pM],"AUC(0-t) at 24 h ([1]; IV, 0.5 mg/kg) [ng·h/mL]","C0 ([1]; IV, 0.5 mg/kg) [ng/mL]","clearance ([1]; IV, 0.5 mg/kg) [mL/min/kg]","half-life ([1]; IV, 0.5 mg/kg) [h]","AUC(0-t) at 24 h ([1]; PO, 2 mg/kg) [ng·h/mL]","Cmax ([1]; PO, 2 mg/kg) [ng/mL]","half-life ([1]; PO, 2 mg/kg) [h]",bioavailability ([1]; PO) [%],SMILES,pharmacokinetics compared to Orforglipron [1]
200,,,,,,,,,"Cc1cc(-n2nc3c(c2-n2ccn(-c4ccc5c(cnn5C)c4F)c2=O)[C@H](C)N(C(=O)c2cc4cc(C5CCOCC5)ccc4n2[C@@]2(c4nnn[nH]4)[C@@H]4CN([C@H]5CC[C@H](O)CC5)C[C@@H]42)CC3)cc(C)c1F (single isomer, unassigned) [Compound C-17]",
600,,,,,,,,,"Cc1cc(-n2nc3c(c2-n2ccn(-c4ccc5c(cnn5C)c4F)c2=O)[C@H](C)N(C(=O)c2cc4cc(C5CCOCC5)ccc4n2[C@@]2(c4nnn[nH]4)[C@@H]4CN([C@H]5CC[C@@H](O)CC5)C[C@@H]42)CC3)cc(C)c1F (single isomer, unassigned) [Compound C-18]",

# Further lines, the molecule ahead of its results:
SMILES,EC50 (human GLP-1R) [pM],"AUC(0-t) at 24 h ([1]; IV, 0.5 mg/kg) [ng·h/mL]","C0 ([1]; IV, 0.5 mg/kg) [ng/mL]","clearance ([1]; IV, 0.5 mg/kg) [mL/min/kg]","half-life ([1]; IV, 0.5 mg/kg) [h]","AUC(0-t) at 24 h ([1]; PO, 2 mg/kg) [ng·h/mL]","Cmax ([1]; PO, 2 mg/kg) [ng/mL]","half-life ([1]; PO, 2 mg/kg) [h]",bioavailability ([1]; PO) [%],pharmacokinetics compared to Orforglipron [1]
"Cc1cc(-n2nc3c(c2-n2ccn(-c4ccc5c(cnn5C)c4F)c2=O)[C@H](C)N(C(=O)c2cc4cc([C@H]5CCOC(C)(C)C5)ccc4n2[C@@]2(c4noc(=O)[nH]4)[C@@H]4CN(c5ncccn5)C[C@@H]42)CC3)cc(C)c1F [Compound C-12, 3-[(1R,5S,6S)-6-{5-[(4S)-2,2-dimethyloxan-4-yl]-2-[(4S)-3-[3-(4-fluoro-1-methyl-1H-indazol-5-yl)-2-oxo-2,3-dihydro-1H-imidazol-1-yl]-2-(4-fluoro-3,5-dimethylphenyl)-4-methyl-2H,4H,5H,6H,7H-pyrazolo[4,3-c]pyridine-5-carbonyl]-1H-indol-1-yl}-3-(pyrimidin-2-yl)-3-azabicyclo[3.1.0]hexan-6-yl]-4,5-dihydro-1,2,4-oxadiazol-5-one]",,6290,6730,1.3,6.3,6160,514,5.9,24.5,"longer half-life, higher exposure, lower clearance rate, and greater bioavailability"
"Cc1cc(-n2nc3c(c2-n2ccn(-c4ccc5c(cnn5C)c4F)c2=O)[C@H](C)N(C(=O)c2cc4cc([C@H]5CCOC(C)(C)C5)ccc4n2[C@@]2(c4noc(=O)[nH]4)[C@@H]4CN(c5ccccn5)C[C@@H]42)CC3)cc(C)c1F [Compound C-22, 3-[(1R,5S,6S)-6-{5-[(4S)-2,2-dimethyloxan-4-yl]-2-[(4S)-3-[3-(4-fluoro-1-methyl-1H-indazol-5-yl)-2-oxo-2,3-dihydro-1H-imidazol-1-yl]-2-(4-fluoro-3,5-dimethylphenyl)-4-methyl-2H,4H,5H,6H,7H-pyrazolo[4,3-c]pyridine-5-carbonyl]-1H-indol-1-yl}-3-(pyridin-2-yl)-3-azabicyclo[3.1.0]hexan-6-yl]-4,5-dihydro-1,2,4-oxadiazol-5-one]",,7560,3810,0.9,10.3,3590,236,13.6,11.9,"longer half-life, higher exposure, lower clearance rate, and greater bioavailability"
"Cc1cc(-n2nc3c(c2-n2ccn(-c4ccc5c(cnn5C)c4F)c2=O)[C@H](C)N(C(=O)c2cc4cc([C@H]5CCOC(C)(C)C5)ccc4n2[C@@]2(c4noc(=O)[nH]4)C[C@@H]2C)CC3)cc(C)c1F [Orforglipron, reference compound]",,1780,1170,4.6,3.4,453,37.5,6.2,6.3,
